Measured values as given in patent US20250059174A1, “Pharmaceutical Compounds and Compositions as C-Kit Kinase Inhibitors” (Enanta Pharmaceuticals, Inc., priority 2023, published 2025).

The compounds below were run against Recombinant human c-KIT kinase (Homo sapiens (Human), UniProt P10721) (assay: c-KIT kinase chemiluminescence assay (ADP-Glo)). Settings: ATP 50 μM.
Type: biochemical
Summary of the method: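 Recombinant human c-KIT preincubated 30 min at RT in 40 mM Tris pH 7.5, 20 mM MgCl2, 0.1 mg/mL BSA, 50 μM DTT, then reacted 2 h at RT with ATP and polyEY substrate. ADP-Glo luminescence readout; activity normalized to high/low controls, IC50 and Hill coefficient from inhibitor-versus-normalized-response fit.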

Chain of Recombinant human c-KIT kinase (P10721 26-976): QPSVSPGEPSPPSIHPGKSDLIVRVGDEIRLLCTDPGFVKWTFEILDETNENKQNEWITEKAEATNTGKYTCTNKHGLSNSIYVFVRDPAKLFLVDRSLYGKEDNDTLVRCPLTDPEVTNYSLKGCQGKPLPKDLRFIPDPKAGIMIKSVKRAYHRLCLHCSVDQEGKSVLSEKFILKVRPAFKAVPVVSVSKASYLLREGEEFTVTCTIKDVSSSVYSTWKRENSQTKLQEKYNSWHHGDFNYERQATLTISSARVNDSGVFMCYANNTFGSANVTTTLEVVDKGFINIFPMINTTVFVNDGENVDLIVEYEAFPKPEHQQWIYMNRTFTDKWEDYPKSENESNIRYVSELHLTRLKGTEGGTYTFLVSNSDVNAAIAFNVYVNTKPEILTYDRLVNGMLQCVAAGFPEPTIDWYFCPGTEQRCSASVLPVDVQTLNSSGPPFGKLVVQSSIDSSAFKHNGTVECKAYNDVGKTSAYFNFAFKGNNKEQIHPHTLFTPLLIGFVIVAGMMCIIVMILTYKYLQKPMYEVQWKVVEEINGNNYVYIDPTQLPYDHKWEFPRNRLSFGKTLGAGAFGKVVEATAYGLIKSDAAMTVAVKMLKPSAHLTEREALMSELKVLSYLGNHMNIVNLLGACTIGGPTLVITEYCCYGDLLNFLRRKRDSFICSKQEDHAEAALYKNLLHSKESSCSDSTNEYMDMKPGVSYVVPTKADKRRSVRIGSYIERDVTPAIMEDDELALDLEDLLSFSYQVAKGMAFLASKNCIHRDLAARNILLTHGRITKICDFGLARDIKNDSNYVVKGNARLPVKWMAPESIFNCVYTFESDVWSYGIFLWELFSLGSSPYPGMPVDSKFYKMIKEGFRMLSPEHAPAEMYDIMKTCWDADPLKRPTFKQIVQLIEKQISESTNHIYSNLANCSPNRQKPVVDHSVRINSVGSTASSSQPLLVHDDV

IC50	SMILES
100 to 1000 nM	Cc1ccc(-c2noc([C@H]3C[C@@H]3F)n2)cc1NC(=O)c1cnc(-c2ccc3[nH]c4c(c3c2)CCN(C(=O)OC(C)(C)C)C4)o1 [Example 308-56]
100 to 1000 nM	Cc1nc(C)c(-c2ccn3ncc(C(=O)Nc4cc(-c5noc([C@H]6C[C@@H](OC(F)(F)F)C6)n5)ccc4C)c3c2)c(C)n1 [Example 171-5]
100 to 1000 nM	CC(=O)N1CCC(c2nc(-c3cnc(C)c(NC(=O)c4cnn5ccc(N6CC7(C6)CC(O)(C(F)F)C7)cc45)c3)no2)C1 (stereo not drawn) [Example 281-55]
100 to 1000 nM	Cc1ccc(-c2noc([C@H]3CC3(F)F)n2)cc1NC(=O)c1cnn2ccc(N3CC4(COC4)C3)cc12 [Example 281-7]
> 1000 nM	Cc1ccc(-c2noc([C@H]3C[C@@H]3F)n2)cc1NC(=O)c1cnc(-c2ccc(-n3cccn3)cc2)o1 [Example 308-13]
< 100 nM	Cc1ccc(-c2noc([C@H]3C[C@@H]3F)n2)cc1NC(=O)c1cnn2ccc(N3CC4(CN(C(=O)C(F)(F)F)C4)C3)cc12 [Example 241-15]
> 1000 nM	Cc1ncc(-c2noc([C@H]3C[C@@H]3F)n2)cc1NC(=O)c1cnn2ccc(-c3c(C)nc(N)nc3C)cc12 [Example 171-10]
100 to 1000 nM	Cc1ccc(-c2noc([C@H]3C[C@@H]3F)n2)cc1NC(=O)c1cnc(-c2ccc(F)c3[nH]ccc23)o1 [Example 308-42]

The next lines start with the compound.

SMILES	IC50
Cc1ccc(-c2cnc(C3CC3)nc2)cc1NC(=O)c1cnn2ccc(N3CC4(C3)CC(O)(C(F)F)C4)cc12 [Example 353]	< 100 nM
Cc1ncc(-c2ncc(C(C)C)cn2)cc1NC(=O)c1cnn2ccc(N3CC4(C3)CC(O)(C(F)F)C4)cc12 [Example 326]	< 100 nM
Cc1ccc(-c2noc([C@H]3C[C@@H]3F)n2)cc1NC(=O)c1cnc(-c2ccc3[nH]c(C(F)(F)F)cc3c2)o1 [Example 304]	< 100 nM
Cc1sc(-c2cnc(C3CC3)nc2)cc1NC(=O)c1cnn2ccc(N3CC4(C3)CC(O)(C(F)F)C4)cc12 [Example 355]	100 to 1000 nM
Cc1ccc(-c2nc3cc(F)ccn3n2)cc1NC(=O)c1cnn2ccc(N3CC4(C3)CC(O)(C(F)F)C4)cc12 [Example 318]	< 100 nM
Cc1ccc(-c2noc([C@H]3C[C@@H]3F)n2)cc1NC(=O)c1cnn2cc(F)c(-c3c(C)nn(CC(C)(C)O)c3C)cc12 [Example 164]	100 to 1000 nM
Cc1ccc(-c2noc([C@H]3C[C@@H]3F)n2)cc1NC(=O)c1cncn1C [Example 2]	> 1000 nM
Cc1ncc(-c2ncc(OC(F)F)cn2)cc1NC(=O)c1cnn2ccc(N3CC4(C3)CC(O)(C(F)F)C4)cc12 [Example 316]	100 to 1000 nM
COCCn1cc(-c2ccc3c(C(=O)Nc4cc(-c5noc([C@H]6C[C@@H]6F)n5)ccc4C)cnn3c2)nn1 [Example 116]	< 100 nM
Cc1ccc(-c2noc([C@H]3C[C@@H]3F)n2)cc1NC(=O)c1cnn2cc(-c3cccnc3)ccc12 [Example 151]	< 100 nM
Cc1ccc(-c2noc([C@H]3C[C@@H](OC(F)F)C3)n2)cc1NC(=O)c1cnn2cc(-c3cn(C(F)(F)C(=O)O)nn3)ccc12 [Example 132-3]	< 100 nM
Cc1ccc(-c2noc([C@H]3C[C@@H]3F)n2)cc1NC(=O)c1cnn2ccc(N3CC4(C3)CC(O)(C(F)F)C4)cc12 [Example 232]	< 100 nM
Cc1ccc(-c2noc([C@H]3C[C@@H]3F)n2)cc1NC(=O)c1cnn2ccc(N3CCN(C(=O)OC(C)(C)C)C[C@@H]3C)cc12 [Example 191]	< 100 nM

The compounds below were run on M-07e cells (assay: M-07e cellular assay (SCF-mediated cell proliferation)). Settings: Homo sapiens, 72 hours, CellTiter Glo.
Type: cell-based
Summary of the method: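 Readout came from CellTiter Glo after 72 h of compound treatment in SCF (EC90)-stimulated, pre-starved M-07e cells at 37 °C.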

SMILES	EC50
Cc1ccc(-c2cnc(C3CC3)nc2)cc1NC(=O)c1cnn2ccc(N3CC4(C3)CC(O)(C(F)F)C4)cc12 [Example 353]	< 100 nM
Cc1ncc(-c2ncc(C(C)C)cn2)cc1NC(=O)c1cnn2ccc(N3CC4(C3)CC(O)(C(F)F)C4)cc12 [Example 326]	< 100 nM
Cc1ccc(-c2noc([C@H]3C[C@@H]3F)n2)cc1NC(=O)c1cnc(-c2ccc3[nH]c4c(c3c2)CCN(C(=O)OC(C)(C)C)C4)o1 [Example 308-56]	100 to 1000 nM
Cc1ccc(-c2noc([C@H]3C[C@@H]3F)n2)cc1NC(=O)c1cnc(-c2ccc3[nH]c(C(F)(F)F)cc3c2)o1 [Example 304]	< 100 nM
Cc1nc(C)c(-c2ccn3ncc(C(=O)Nc4cc(-c5noc([C@H]6C[C@@H](OC(F)(F)F)C6)n5)ccc4C)c3c2)c(C)n1 [Example 171-5]	100 to 1000 nM
CC(=O)N1CCC(c2nc(-c3cnc(C)c(NC(=O)c4cnn5ccc(N6CC7(C6)CC(O)(C(F)F)C7)cc45)c3)no2)C1 (stereo not drawn) [Example 281-55]	> 1000 nM
Cc1sc(-c2cnc(C3CC3)nc2)cc1NC(=O)c1cnn2ccc(N3CC4(C3)CC(O)(C(F)F)C4)cc12 [Example 355]	< 100 nM
Cc1ccc(-c2nc3cc(F)ccn3n2)cc1NC(=O)c1cnn2ccc(N3CC4(C3)CC(O)(C(F)F)C4)cc12 [Example 318]	< 100 nM
Cc1ccc(-c2noc([C@H]3CC3(F)F)n2)cc1NC(=O)c1cnn2ccc(N3CC4(COC4)C3)cc12 [Example 281-7]	< 100 nM
Cc1ccc(-c2noc([C@H]3C[C@@H]3F)n2)cc1NC(=O)c1cnc(-c2ccc(-n3cccn3)cc2)o1 [Example 308-13]	> 1000 nM
Cc1ccc(-c2noc([C@H]3C[C@@H]3F)n2)cc1NC(=O)c1cnn2ccc(N3CC4(CN(C(=O)C(F)(F)F)C4)C3)cc12 [Example 241-15]	< 100 nM
Cc1ncc(-c2noc([C@H]3C[C@@H]3F)n2)cc1NC(=O)c1cnn2ccc(-c3c(C)nc(N)nc3C)cc12 [Example 171-10]	> 1000 nM
Cc1ccc(-c2noc([C@H]3C[C@@H]3F)n2)cc1NC(=O)c1cnc(-c2ccc(F)c3[nH]ccc23)o1 [Example 308-42]	100 to 1000 nM
Cc1ccc(-c2noc([C@H]3C[C@@H]3F)n2)cc1NC(=O)c1cnn2cc(F)c(-c3c(C)nn(CC(C)(C)O)c3C)cc12 [Example 164]	100 to 1000 nM
Cc1ccc(-c2noc([C@H]3C[C@@H]3F)n2)cc1NC(=O)c1cncn1C [Example 2]	> 1000 nM
Cc1ncc(-c2ncc(OC(F)F)cn2)cc1NC(=O)c1cnn2ccc(N3CC4(C3)CC(O)(C(F)F)C4)cc12 [Example 316]	100 to 1000 nM
COCCn1cc(-c2ccc3c(C(=O)Nc4cc(-c5noc([C@H]6C[C@@H]6F)n5)ccc4C)cnn3c2)nn1 [Example 116]	< 100 nM
Cc1ccc(-c2noc([C@H]3C[C@@H]3F)n2)cc1NC(=O)c1cnn2cc(-c3cccnc3)ccc12 [Example 151]	< 100 nM
Cc1ccc(-c2noc([C@H]3C[C@@H](OC(F)F)C3)n2)cc1NC(=O)c1cnn2cc(-c3cn(C(F)(F)C(=O)O)nn3)ccc12 [Example 132-3]	> 1000 nM
Cc1ccc(-c2noc([C@H]3C[C@@H]3F)n2)cc1NC(=O)c1cnn2ccc(N3CC4(C3)CC(O)(C(F)F)C4)cc12 [Example 232]	< 100 nM
Cc1ccc(-c2noc([C@H]3C[C@@H]3F)n2)cc1NC(=O)c1cnn2ccc(N3CCN(C(=O)OC(C)(C)C)C[C@@H]3C)cc12 [Example 191]	< 100 nM
